The source of these data is patent US8236850B2, “Dimeric derivatives of artemisinin and application in anticancer therapy” (Pierre Fabre Medicament, priority 2007, dated 2012).

A word on the pIC50: it is the IC50 on a negative log10 scale, so that one unit is a factor of ten.

The test system of one assay is A549 cell line (lung). Description: Cytotoxic activity: inhibition of cell proliferation, residual ATP by luminescence (ATPLite). The following applies: Homo sapiens, 72 hours of incubation. In kind it is cell-based. The protocol:
(§1) Cytotoxic activity of the compounds prepared according to the invention was evaluated by measuring inhibition of cell proliferation of tumoral cell lines of human origin, such as the A549 cell line (lung) and the Namalwa cell line (lymphoma). This activity is expressed by IC50, the concentration of the tested product capable of inhibiting cell proliferation by 50%. The method used is a measurement of residual ATP by luminescence after 72 hours of incubation by using the “ATPLite” kit marketed by Perkin Elmer.
Background: ATP-based viability assays read luminescence as a measure of living cells.

Assay [1] relates to Namalwa cell line (lymphoma). The description is as above. It counts as cell-based. To be noted: Homo sapiens, 72 hours of incubation. Here is the method: as §1

pIC50: −log10 of the molar value.

With `C[C@@H]1CC[C@H]2C(CSCC3=C(C(F)(F)F)O[C@@H]4O[C@@]5(C)CCC6[C@H](C)CC[C@@H]3[C@]64OO5)=C(C(F)(F)F)O[C@@H]3OC4(C)CCC1[C@]32OO4` (stereo partly shown) [Compound 1], the pIC50 is 6.70 with A549 cell line (lung) and 6.54 in assay [1].

Regarding `C[C@@H]1CC[C@H]2C(C[S+]([O-])CC3=C(C(F)(F)F)O[C@@H]4O[C@@]5(C)CCC6[C@H](C)CC[C@@H]3[C@]64OO5)=C(C(F)(F)F)O[C@@H]3OC4(C)CCC1[C@]32OO4` (stereo partly shown) [Compound 2], the pIC50 with A549 cell line (lung) was 6.07; in assay [1] it was 6.00.

Regarding `C[C@@H]1CC[C@H]2C(CS(=O)(=O)CC3=C(C(F)(F)F)O[C@@H]4O[C@@]5(C)CCC6[C@H](C)CC[C@@H]3[C@]64OO5)=C(C(F)(F)F)O[C@@H]3OC4(C)CCC1[C@]32OO4` (stereo partly shown) [Compound 3], the pIC50 in the assay on A549 cell line (lung) is 5.92; in assay [1] it was 5.64.

As to `C[C@@H]1CC[C@H]2C(CSSCC3=C(C(F)(F)F)O[C@@H]4O[C@@]5(C)CCC6[C@H](C)CC[C@@H]3[C@]64OO5)=C(C(F)(F)F)O[C@@H]3OC4(C)CCC1[C@]32OO4` (stereo partly shown) [Compound 4], the pIC50 in the assay with A549 cell line (lung) was 7.08; in assay [1] it was 7.19.

For the compound `C[C@@H]1CC[C@H]2C(COCCSSCCOCC3=C(C(F)(F)F)O[C@@H]4O[C@@]5(C)CCC6[C@H](C)CC[C@@H]3[C@]64OO5)=C(C(F)(F)F)O[C@@H]3OC4(C)CCC1[C@]32OO4` (stereo partly shown) [Compound 5], the values for the pIC50 (in the assay with A549 cell line (lung); in assay [1]) were 7.05 and 7.30, respectively.

Turning to `C[C@@H]1CC[C@H]2C(CSCCSCC3=C(C(F)(F)F)O[C@@H]4O[C@@]5(C)CCC6[C@H](C)CC[C@@H]3[C@]64OO5)=C(C(F)(F)F)O[C@@H]3OC4(C)CCC1[C@]32OO4` (stereo partly shown) [Compound 6], the pIC50 with A549 cell line (lung) was 7.20; in assay [1], 7.57.

As for `C[C@@H]1CC[C@H]2C(CSCCCSCC3=C(C(F)(F)F)O[C@@H]4O[C@@]5(C)CCC6[C@H](C)CC[C@@H]3[C@]64OO5)=C(C(F)(F)F)O[C@@H]3OC4(C)CCC1[C@]32OO4` (stereo partly shown) [Compound 7], the pIC50 is 6.82 in the assay with A549 cell line (lung) and 7.00 in assay [1].

Turning to `C[C@@H]1CC[C@H]2C(CSCCCCSCC3=C(C(F)(F)F)O[C@@H]4O[C@@]5(C)CCC6[C@H](C)CC[C@@H]3[C@]64OO5)=C(C(F)(F)F)O[C@@H]3OC4(C)CCC1[C@]32OO4` (stereo partly shown) [Compound 8], the values for the negative logarithm of the IC50 (pIC50) (with A549 cell line (lung); in assay [1]) were 6.57 and 7.19, respectively.

As for `C[C@@H]1CC[C@H]2C(COCCSCC3=C(C(F)(F)F)O[C@@H]4O[C@@]5(C)CCC6[C@H](C)CC[C@@H]3[C@]64OO5)=C(C(F)(F)F)O[C@@H]3OC4(C)CCC1[C@]32OO4` (stereo partly shown) [Compound 9], the pIC50 is 7.51 in the assay on A549 cell line (lung) and 7.62 in assay [1].

Consider `C[C@@H]1CC[C@H]2C(CN(C)CCN(C)CC3=C(C(F)(F)F)O[C@@H]4O[C@@]5(C)CCC6[C@H](C)CC[C@@H]3[C@]64OO5)=C(C(F)(F)F)O[C@@H]3OC4(C)CCC1[C@]32OO4` (stereo partly shown) [Compound 11], for which the figures for the pIC50 (with A549 cell line (lung); in assay [1]) were 5.96 and 6.10, respectively.

Regarding `C[C@@H]1CC[C@H]2C(CN(C)CCCN(C)CC3=C(C(F)(F)F)O[C@@H]4O[C@@]5(C)CCC6[C@H](C)CC[C@@H]3[C@]64OO5)=C(C(F)(F)F)O[C@@H]3OC4(C)CCC1[C@]32OO4` (stereo partly shown) [Compound 12], the pIC50 was 6.16 in the assay on A549 cell line (lung) and 6.41 in assay [1].

`C[C@@H]1CC[C@H]2C(COC(=O)c3cccc(C(=O)OCC4=C(C(F)(F)F)O[C@@H]5O[C@@]6(C)CC[C@H]7[C@H](C)CC[C@@H]4[C@@]57OO6)n3)=C(C(F)(F)F)O[C@@H]3O[C@@]4(C)CC[C@@H]1[C@]32OO4` [Compound 25]: the negative-log IC50 (pIC50) in the assay with A549 cell line (lung) was 6.85; in assay [1], 7.21.

Turning to `C[C@@H]1CC[C@H]2C(COC(=O)c3cccc(C(=O)OCC4=C(C(F)(F)F)O[C@@H]5O[C@@]6(C)CC[C@H]7[C@H](C)CC[C@@H]4[C@@]57OO6)c3)=C(C(F)(F)F)O[C@@H]3O[C@@]4(C)CC[C@@H]1[C@]32OO4` [Compound 26], the pIC50 in the assay with A549 cell line (lung) is 7.15; in assay [1] it was 7.27.

Regarding `C[C@@H]1CC[C@H]2C(COC(=O)c3ccc(C(=O)OCC4=C(C(F)(F)F)O[C@@H]5O[C@@]6(C)CC[C@H]7[C@H](C)CC[C@@H]4[C@@]57OO6)s3)=C(C(F)(F)F)O[C@@H]3O[C@@]4(C)CC[C@@H]1[C@]32OO4` [Compound 27], the pIC50 is 6.68 in the assay on A549 cell line (lung) and 6.89 in assay [1].

With `C[C@@H]1CC[C@H]2C(CNC(=O)c3cccc(C(=O)NCC4=C(C(F)(F)F)O[C@@H]5O[C@@]6(C)CC[C@H]7[C@H](C)CC[C@@H]4[C@@]57OO6)n3)=C(C(F)(F)F)O[C@@H]3O[C@@]4(C)CC[C@@H]1[C@]32OO4` [Compound 30], the pIC50 is 6.77 with A549 cell line (lung) and 7.14 in assay [1].

For `C[C@@H]1CC[C@H]2C(CNC(=O)c3ccc(C(=O)NCC4=C(C(F)(F)F)O[C@@H]5O[C@@]6(C)CC[C@H]7[C@H](C)CC[C@@H]4[C@@]57OO6)s3)=C(C(F)(F)F)O[C@@H]3O[C@@]4(C)CC[C@@H]1[C@]32OO4` [Compound 31], the pIC50 with A549 cell line (lung) is 6.66; in assay [1], 7.06.

For the compound `C[C@@H]1CC[C@H]2C(COCc3cnnn3CC3=C(C(F)(F)F)O[C@@H]4O[C@@]5(C)CC[C@@]6(C)[C@H](C)CC[C@@H]3[C@@]46OO5)=C(C(F)(F)F)O[C@@H]3O[C@@]4(C)CC[C@@H]1[C@]32OO4` [Compound 32], the values for the pIC50 (with A549 cell line (lung); in assay [1]) were 6.57 and 6.89, respectively.

`C[C@@H]1CC[C@H]2C(COCc3cn(CC4=C(C(F)(F)F)O[C@@H]5O[C@]6(C)CC[C@H]7[C@H](C)CC[C@@H]4[C@@]57OO6)nn3)=C(C(F)(F)F)O[C@@H]3O[C@@]4(C)CC[C@@H]1[C@]32OO4` [Compound 33]: the results for the pIC50 (with A549 cell line (lung); in assay [1]) were 6.96 and 7.52, respectively.

In the case of `C[C@@H]1CC[C@H]2C(COCc3cccc(COCC4=C(C(F)(F)F)O[C@@H]5O[C@@]6(C)CC[C@H]7[C@H](C)CC[C@@H]4[C@@]57OO6)n3)=C(C(F)(F)F)O[C@@H]3O[C@@]4(C)CC[C@@H]1[C@]32OO4` [Compound 37], the pIC50 in the assay on A549 cell line (lung) was 7.13; in assay [1] it was 7.52.

As to `C[C@@H]1CC[C@H]2C(COCC#CC(O)C3=C(C(F)(F)F)O[C@@H]4O[C@@]5(C)CC[C@H]6[C@H](C)CC[C@@H]3[C@@]46OO5)=C(C(F)(F)F)O[C@@H]3O[C@@]4(C)CC[C@@H]1[C@]32OO4` (stereo partly shown) [Compound 39], the pIC50 was 6.62 in the assay with A549 cell line (lung) and 6.80 in assay [1].
